Experiments:
Type in all cases: biochemical
[1] = biological target: T1, purified recombinant human JAK1 protein (Homo sapiens, UniProt P23458); assay: Measurement of JAK1 kinase-inhibitory activity; details: substrate peptide 1 μM, ATP 75 M (so in the source), 25° C., 120 minutes
T1 construct: purchased Carna Biosciences, Inc
Experimental: 1) Measurement of JAK1 Kinase-Inhibitory Activity
The activity of the compound of the present invention to inhibit the activity of JAK1 kinase was measured.
(§1) Among materials for the measurement of this inhibitory activity, a substrate peptide and a kinase protein were acquired as follows. As such a substrate peptide, a substrate peptide for QSS Assist™ JAK1-MSA assay kit (Carna Biosciences, Inc.) was purchased. As such a kinase protein, a purified recombinant human JAK1 protein (Carna Biosciences, Inc.) was purchased.
The method for measuring the inhibitory activity is as follows. First, the compounds of the present invention were each dissolved in dimethyl sulfoxide (DMSO), and a serial dilution was then prepared by the use of DMSO. Subsequently, a serial dilution solution of the compound (the final concentration of DMSO upon a kinase reaction: 5.0%) or DMSO (final concentration: 5.0%) was mixed with a solution containing the substrate peptide (final concentration: 1 μM), magnesium chloride (final concentration: 5 mM) and ATP (final concentration: 75 µM) in a buffer for kinase reaction (20 mM HEPES (pH 7.5), 2 mM dithiothreitol and 0.01% Triton X-100). Thereafter, a JAK1 protein was further added to the mixed solution, and the obtained mixture was then incubated at 25° C. for 120 minutes to carry out a kinase reaction. To the reaction solution, EDTA was added to a final concentration of 30 mM, so as to terminate the reaction. Finally, with LabChip EZ Reader II (Perkin Elmer Corp.), an unphosphorylated substrate peptide (S) and a phosphorylated peptide (P) were subjected to microchannel capillary electrophoresis, so that the two peptides were separated from each other and were then detected. The amount of a phosphorylation reaction was obtained based on the heights of the peaks of S and P, and the concentration of the compound capable of inhibiting 50% of the phosphorylation reaction was defined as an IC50 value (nM).

[2] = biological target: T2, purified recombinant human JAK3 protein (Homo sapiens, UniProt P52333); assay: Measurement of JAK3 kinase-inhibitory activity; details: substrate peptide 1 μM, ATP 5 μM, 25° C., 80 minutes
T2 construct: purchased Carna Biosciences, Inc
T2 sequence (P52333 1-1124): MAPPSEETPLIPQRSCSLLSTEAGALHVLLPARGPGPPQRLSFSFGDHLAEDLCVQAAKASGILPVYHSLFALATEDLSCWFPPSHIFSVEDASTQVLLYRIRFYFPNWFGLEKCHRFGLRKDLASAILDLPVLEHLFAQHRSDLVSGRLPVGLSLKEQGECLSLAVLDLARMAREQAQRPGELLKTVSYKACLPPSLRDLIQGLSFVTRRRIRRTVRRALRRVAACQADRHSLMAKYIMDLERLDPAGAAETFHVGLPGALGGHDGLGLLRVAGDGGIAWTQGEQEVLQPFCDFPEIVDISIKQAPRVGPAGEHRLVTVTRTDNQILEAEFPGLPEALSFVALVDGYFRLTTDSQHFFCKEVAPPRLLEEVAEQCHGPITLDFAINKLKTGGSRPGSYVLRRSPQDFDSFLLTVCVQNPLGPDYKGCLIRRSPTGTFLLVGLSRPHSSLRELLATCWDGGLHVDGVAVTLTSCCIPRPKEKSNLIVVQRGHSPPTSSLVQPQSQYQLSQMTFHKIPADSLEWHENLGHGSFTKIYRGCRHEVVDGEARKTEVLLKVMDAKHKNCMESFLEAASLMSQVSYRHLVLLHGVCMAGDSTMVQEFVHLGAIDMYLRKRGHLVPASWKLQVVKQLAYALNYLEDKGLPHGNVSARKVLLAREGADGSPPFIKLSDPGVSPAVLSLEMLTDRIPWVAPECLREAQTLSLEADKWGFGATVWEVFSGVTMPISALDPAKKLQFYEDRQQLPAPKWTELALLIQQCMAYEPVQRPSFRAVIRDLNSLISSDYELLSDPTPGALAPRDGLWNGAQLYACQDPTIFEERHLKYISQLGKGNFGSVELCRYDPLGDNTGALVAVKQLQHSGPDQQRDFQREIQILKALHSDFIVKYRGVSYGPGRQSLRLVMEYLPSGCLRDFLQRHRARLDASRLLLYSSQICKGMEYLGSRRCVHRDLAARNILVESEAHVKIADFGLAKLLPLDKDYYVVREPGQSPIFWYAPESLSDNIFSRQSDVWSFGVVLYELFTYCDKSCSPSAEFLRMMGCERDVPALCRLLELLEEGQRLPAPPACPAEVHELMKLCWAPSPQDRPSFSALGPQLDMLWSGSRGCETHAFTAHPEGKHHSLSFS
Experimental: 3) Measurement of JAK3 Kinase-Inhibitory Activity
The activity of the compound of the present invention to inhibit the activity of JAK3 kinase was measured.
as §1, with “JAK3-MSA” for “JAK1-MSA”, “JAK3” for “JAK1”
The method for measuring the inhibitory activity is as follows. First, a serial dilution of the compound of the present invention was prepared by the same method as that described in the above section regarding JAK1. This serial dilution solution (the final concentration of DMSO upon a kinase reaction: 5.0%) or DMSO (final concentration: 5.0%) was mixed with a solution containing the substrate peptide (final concentration: 1 μM), magnesium chloride (final concentration: 5 mM) and ATP (final concentration: 5 μM) in a buffer for kinase reaction (20 mM HEPES (pH 7.5), 2 mM dithiothreitol and 0.01% Triton X-100). Thereafter, a JAK3 protein was further added to the mixed solution, and the obtained mixture was then incubated at 25° C. for 80 minutes to carry out a kinase reaction. To the reaction solution, EDTA was added to a final concentration of 30 mM, so as to terminate the reaction. After termination of the reaction, the measurement and the data analysis were carried out by the same methods as those described in the above section regarding JAK1.

[3] = biological target: T3, purified recombinant human JAK2 protein (Homo sapiens, UniProt O60674); assay: Measurement of JAK2 kinase-inhibitory activity; details: FL-Peptide 22 1 μM, ATP 10 μM, 25° C., 80 minutes
T3 construct: purchased Carna Biosciences, Inc
T3 sequence (O60674 whole entry): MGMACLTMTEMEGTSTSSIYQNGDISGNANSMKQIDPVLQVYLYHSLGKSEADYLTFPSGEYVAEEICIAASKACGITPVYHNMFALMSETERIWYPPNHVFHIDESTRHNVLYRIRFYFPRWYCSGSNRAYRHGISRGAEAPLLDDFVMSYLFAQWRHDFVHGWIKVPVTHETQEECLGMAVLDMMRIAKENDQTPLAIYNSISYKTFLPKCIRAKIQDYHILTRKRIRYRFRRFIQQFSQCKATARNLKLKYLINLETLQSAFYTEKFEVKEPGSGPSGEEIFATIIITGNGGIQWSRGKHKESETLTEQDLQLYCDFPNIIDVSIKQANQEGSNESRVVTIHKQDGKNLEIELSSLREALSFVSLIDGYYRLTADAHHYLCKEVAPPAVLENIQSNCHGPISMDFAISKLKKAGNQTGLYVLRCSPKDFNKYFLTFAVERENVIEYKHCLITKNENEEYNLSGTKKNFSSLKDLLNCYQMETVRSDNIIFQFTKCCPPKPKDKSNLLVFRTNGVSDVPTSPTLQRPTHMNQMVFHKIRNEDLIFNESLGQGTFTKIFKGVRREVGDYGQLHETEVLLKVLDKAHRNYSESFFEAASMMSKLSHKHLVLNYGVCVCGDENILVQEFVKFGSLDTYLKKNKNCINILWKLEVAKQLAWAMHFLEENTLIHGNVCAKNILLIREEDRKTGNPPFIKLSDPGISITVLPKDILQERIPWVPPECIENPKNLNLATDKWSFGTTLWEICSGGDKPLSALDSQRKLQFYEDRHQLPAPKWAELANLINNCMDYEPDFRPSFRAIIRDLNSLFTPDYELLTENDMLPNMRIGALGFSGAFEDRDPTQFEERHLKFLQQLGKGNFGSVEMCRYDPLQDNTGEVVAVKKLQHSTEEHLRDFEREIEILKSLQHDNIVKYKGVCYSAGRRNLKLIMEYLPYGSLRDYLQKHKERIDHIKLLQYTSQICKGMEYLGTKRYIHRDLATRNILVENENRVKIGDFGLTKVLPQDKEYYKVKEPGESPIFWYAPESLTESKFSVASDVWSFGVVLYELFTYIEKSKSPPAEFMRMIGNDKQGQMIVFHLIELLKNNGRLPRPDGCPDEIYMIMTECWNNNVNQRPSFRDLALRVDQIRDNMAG
Experimental: 2) Measurement of JAK2 Kinase-Inhibitory Activity
The activity of the compound of the present invention to inhibit the activity of JAK2 kinase was measured.
as §1, with “FL-Peptide 22 (Perkin Elmer Corp.)” for “a substrate peptide for QSS Assist™ JAK1-MSA assay kit (Carna Biosciences, Inc.)”, “JAK2” for “JAK1”
The method for measuring the inhibitory activity is as follows. First, a serial dilution of the compound of the present invention was prepared by the same method as that described in the above section regarding JAK1. This serial dilution solution (the final concentration of DMSO upon a kinase reaction: 5.0%) or DMSO (final concentration: 5.0%) was mixed with a solution containing the substrate peptide (final concentration: 1 μM), magnesium chloride (final concentration: 10 mM) and ATP (final concentration: 10 μM) in a buffer for kinase reaction (15 mM Tris (pH 7.5), 2 mM dithiothreitol and 0.01% Tween 20). Thereafter, a JAK2 protein was further added to the mixed solution, and the obtained mixture was then incubated at 25° C. for 80 minutes to carry out a kinase reaction. To the reaction solution, EDTA was added to a final concentration of 30 mM, so as to terminate the reaction. After termination of the reaction, the measurement and the data analysis were carried out by the same methods as those described in the above section regarding JAK1.

T1 sequence (P23458 whole entry): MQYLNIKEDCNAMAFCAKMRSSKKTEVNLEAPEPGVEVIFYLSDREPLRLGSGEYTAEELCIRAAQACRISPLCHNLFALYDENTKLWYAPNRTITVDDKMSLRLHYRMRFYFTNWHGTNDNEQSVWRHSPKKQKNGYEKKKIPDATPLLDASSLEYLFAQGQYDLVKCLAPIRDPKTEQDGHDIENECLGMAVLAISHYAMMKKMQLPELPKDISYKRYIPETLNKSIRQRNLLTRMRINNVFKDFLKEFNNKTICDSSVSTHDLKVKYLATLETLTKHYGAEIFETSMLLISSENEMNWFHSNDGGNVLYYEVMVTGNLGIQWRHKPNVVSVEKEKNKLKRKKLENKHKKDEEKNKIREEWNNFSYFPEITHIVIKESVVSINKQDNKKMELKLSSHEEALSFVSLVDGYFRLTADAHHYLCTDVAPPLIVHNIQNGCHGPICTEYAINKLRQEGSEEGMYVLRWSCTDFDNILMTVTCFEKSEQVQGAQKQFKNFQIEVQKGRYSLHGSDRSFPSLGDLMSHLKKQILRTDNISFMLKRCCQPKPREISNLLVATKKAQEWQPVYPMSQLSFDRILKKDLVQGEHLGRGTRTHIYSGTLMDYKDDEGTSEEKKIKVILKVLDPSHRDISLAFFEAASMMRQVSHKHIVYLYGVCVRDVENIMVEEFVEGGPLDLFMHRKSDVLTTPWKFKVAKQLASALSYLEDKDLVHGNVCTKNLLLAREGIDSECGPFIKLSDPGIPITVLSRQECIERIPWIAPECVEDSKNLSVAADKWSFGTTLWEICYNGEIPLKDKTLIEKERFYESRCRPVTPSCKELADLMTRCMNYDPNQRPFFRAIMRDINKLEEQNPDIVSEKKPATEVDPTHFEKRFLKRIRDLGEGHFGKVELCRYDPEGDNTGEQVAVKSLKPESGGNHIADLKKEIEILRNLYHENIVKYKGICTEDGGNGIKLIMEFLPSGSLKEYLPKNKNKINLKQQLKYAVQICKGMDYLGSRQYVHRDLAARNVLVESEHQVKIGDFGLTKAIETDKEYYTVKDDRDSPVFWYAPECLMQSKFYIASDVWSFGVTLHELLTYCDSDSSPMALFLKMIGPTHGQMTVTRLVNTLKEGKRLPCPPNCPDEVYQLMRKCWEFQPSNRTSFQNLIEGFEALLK

With C=CC(=O)NC1CCC=C(c2ccnc3[nH]cc(-c4nnc(CC)o4)c23)C1 (stereo not drawn) [Compound 51, N-(3-(3-(5-Ethyl-1,3,4-oxadiazol-2-yl)-1H-pyrrolo[2,3-b]pyridin-4-yl)cyclohex-3-en-1-yl)acrylamide] the IC50 [1] was 3000 nM, the IC50 [2] was 0.61 nM and the IC50 [3] was 380 nM.
C=CC(=O)NC1CCC=C(c2ccnc3[nH]cc(-c4n[nH]c(=O)o4)c23)C1 (stereo not drawn) [Compound 52, N-(3-(3-(5-Oxo-4,5-dihydro-1,3,4-oxadiazol-2-yl)-1H-pyrrolo[2,3-b]pyridin-4-yl)cyclohex-3-en-1-yl)acrylamide] gave an IC50 [1] of 890 nM, an IC50 [2] of less than 0.3 nM and an IC50 [3] of 480 nM.
